Assay [1] has as its target T1, PAPSS2 (Homo sapiens, UniProt O95340).
T1 sequence (O95340 1-614): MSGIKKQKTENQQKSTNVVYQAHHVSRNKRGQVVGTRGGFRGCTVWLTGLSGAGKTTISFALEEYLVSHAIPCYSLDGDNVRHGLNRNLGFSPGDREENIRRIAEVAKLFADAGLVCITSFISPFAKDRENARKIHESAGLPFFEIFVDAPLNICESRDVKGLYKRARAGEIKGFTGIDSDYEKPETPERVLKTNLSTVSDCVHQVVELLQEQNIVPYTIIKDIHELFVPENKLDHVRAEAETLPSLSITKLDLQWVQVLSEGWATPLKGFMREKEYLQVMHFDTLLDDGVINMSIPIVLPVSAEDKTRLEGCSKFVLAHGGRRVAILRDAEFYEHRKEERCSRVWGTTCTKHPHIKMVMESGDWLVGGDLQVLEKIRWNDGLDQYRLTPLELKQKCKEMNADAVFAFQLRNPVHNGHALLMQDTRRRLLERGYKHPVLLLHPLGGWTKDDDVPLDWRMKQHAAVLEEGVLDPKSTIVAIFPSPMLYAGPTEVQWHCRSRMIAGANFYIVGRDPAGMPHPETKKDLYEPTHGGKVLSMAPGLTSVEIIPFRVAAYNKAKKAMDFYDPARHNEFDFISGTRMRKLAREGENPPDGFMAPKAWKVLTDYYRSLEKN
The assay can be described thus: thermal unfolding by CD at […] nm. As to conditions: about 0.5 μM protein, pH 7.3, 1 mM MgCl2, 25 °C/h. It counts as binding.

For assay [2], the target named is T2, PAPSS1 (Homo sapiens, UniProt O43252).
T2 sequence (O43252 1-624): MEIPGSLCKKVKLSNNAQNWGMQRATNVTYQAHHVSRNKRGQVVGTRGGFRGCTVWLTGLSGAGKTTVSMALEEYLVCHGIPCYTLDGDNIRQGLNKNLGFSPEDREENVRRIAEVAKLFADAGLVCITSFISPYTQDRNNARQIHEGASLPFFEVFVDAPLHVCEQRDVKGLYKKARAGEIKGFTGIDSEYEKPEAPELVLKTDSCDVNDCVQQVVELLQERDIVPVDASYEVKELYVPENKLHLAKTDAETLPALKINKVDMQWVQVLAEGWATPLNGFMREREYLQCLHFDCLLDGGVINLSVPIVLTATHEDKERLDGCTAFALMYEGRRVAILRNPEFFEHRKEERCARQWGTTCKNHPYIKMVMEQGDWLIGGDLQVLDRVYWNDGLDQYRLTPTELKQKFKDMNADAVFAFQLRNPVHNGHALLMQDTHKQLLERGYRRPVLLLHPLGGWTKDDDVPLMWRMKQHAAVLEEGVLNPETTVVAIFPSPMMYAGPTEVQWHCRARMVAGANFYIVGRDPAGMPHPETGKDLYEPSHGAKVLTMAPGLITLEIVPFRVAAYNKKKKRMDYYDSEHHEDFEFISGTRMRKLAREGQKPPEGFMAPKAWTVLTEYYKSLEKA
Nature of the assay: thermal unfolding by CD at […] nm. It counts as binding. The settings on record: about 0.5 μM protein, pH 7.3, 1 mM MgCl2, 25 °C/h.

Each structure is given as a SMILES string.

In the case of `Nc1ncnc2c1ncn2[C@@H]1O[C@H](COP(=O)(O)OP(=O)(O)O)[C@@H](O)[C@H]1O` [ADP], the “thermal unfolding by CD at 225 nm” value in assay [1] (100 μM ADP) is “moderate effects on PAPSS1 and -S2 stability were observed for ADP and PAPS”; in assay [2] (100 μM ADP) it was “moderate effects on PAPSS1 and -S2 stability were observed for ADP and PAPS”.

Turning to `Nc1ncnc2c1ncn2[C@@H]1O[C@H](COP(=O)(O)OP(=O)(O)OP(=O)(O)O)[C@@H](O)[C@H]1O` [ATP], the “thermal unfolding by CD at 225 nm” value in assay [1] (100 μM ATP) is “ATP had a slight stabilizing effect on PAPSS2”. As for `Nc1ncnc2c1ncn2[C@@H]1O[C@H](COP(=O)(O)OS(=O)(=O)O)[C@@H](OP(=O)(O)O)[C@H]1O` [PAPS], the “thermal unfolding by CD at 225 nm” value in assay [1] (50 μM PAPS) is “moderate effects on PAPSS1 and -S2 stability were observed for ADP and PAPS”; in assay [2] (50 μM PAPS) it was “moderate effects on PAPSS1 and -S2 stability were observed for ADP and PAPS”.

Values taken from PMC3366831 (The Journal of Biological Chemistry, 2012).
